Test [1] deals with Frankliniella occidentalis. Description: Insecticidal activity against Frankliniella occidentalis R1 (western flower thrips) in compound treated sweet pepper leaf assessed as mortality at 150 mg/l at 25 +/- 2 degC by leaf dip method. The class given is functional. As to conditions: R1, in Capsicum annuum, foliar.
Test [2] relates to Frankliniella occidentalis. Nature of the test: Insecticidal activity against Frankliniella occidentalis SPI5 (western flower thrips) in compound treated sweet pepper leaf assessed as mortality at 150 mg/l at 25 +/- 2 degC by leaf dip method. The class given is functional. The following applies: SPI5, in Capsicum annuum, foliar.
The subject of test [3] is Frankliniella occidentalis. Description: Insecticidal activity against Frankliniella occidentalis TFB (western flower thrips) in compound treated sweet pepper leaf assessed as mortality at 150 mg/l at 25 +/- 2 degC by leaf dip method. The format is functional. The following applies: in Capsicum annuum, foliar.
Test [4] concerns Frankliniella occidentalis. Nature of the test: Insecticidal activity against Frankliniella occidentalis TFA (western flower thrips) in compound treated sweet pepper leaf assessed as mortality at 150 mg/l at 25 +/- 2 degC by leaf dip method. The following applies: in Capsicum annuum, foliar. The format is functional.
Test [5] has as its system Frankliniella occidentalis. Description: Insecticidal activity against Frankliniella occidentalis SPI5 (western flower thrips) in compound treated sweet pepper leaf assessed as mortality at 216 mg/l at 25 +/- 2 degC by leaf dip method. The format is functional. As to conditions: SPI5, in Capsicum annuum, foliar.
Test [6] relates to Frankliniella occidentalis. Description: Insecticidal activity against Frankliniella occidentalis TFB (western flower thrips) in compound treated sweet pepper leaf assessed as mortality at 216 mg/l at 25 +/- 2 degC by leaf dip method. The following applies: in Capsicum annuum, foliar. The format is functional.
For test [7], the system named is Frankliniella occidentalis. Nature of the test: Insecticidal activity against Frankliniella occidentalis TFA (western flower thrips) in compound treated sweet pepper leaf assessed as mortality at 216 mg/l at 25 +/- 2 degC by leaf dip method. The format is functional. The following applies: in Capsicum annuum, foliar.
In test [8] the test system is Frankliniella occidentalis. Description: Insecticidal activity against Frankliniella occidentalis R1 (western flower thrips) in compound treated sweet pepper leaf assessed as mortality at 216 mg/l at 25 +/- 2 degC by leaf dip method. The class given is functional. As to conditions: R1, in Capsicum annuum, foliar.
Test [9] concerns Frankliniella occidentalis. Nature of the test: Insecticidal activity against Frankliniella occidentalis R1S (western flower thrips) in compound treated sweet pepper leaf assessed as mortality at 25 +/- 2 degC by leaf dip method. The following applies: in Capsicum annuum, foliar. The class given is functional.
In test [10] the test system is Frankliniella occidentalis. Description: Insecticidal activity against Frankliniella occidentalis TFB (western flower thrips) in compound treated sweet pepper leaf assessed as mortality at 25 +/- 2 degC by leaf dip method. The class given is functional. As to conditions: in Capsicum annuum, foliar.
For test [11], the system named is Frankliniella occidentalis. Nature of the test: Insecticidal activity against Frankliniella occidentalis MOJO (western flower thrips) in compound treated sweet pepper leaf assessed as mortality at 25 +/- 2 degC by leaf dip method. The format is functional. The following applies: in Capsicum annuum, foliar.
Test [12] has as its system Frankliniella occidentalis. Description: Resistance factor, LC50 for Frankliniella occidentalis R1S (western flower thrips) to LC50 for Frankliniella occidentalis TFR. The format is functional.
Test [13] deals with Frankliniella occidentalis. Description: Insecticidal activity against Frankliniella occidentalis SPI5 (western flower thrips) in compound treated sweet pepper leaf assessed as mortality at 50 mg/l at 25 +/- 2 degC by leaf dip method. The class given is functional. The following applies: SPI5, in Capsicum annuum, foliar.
Test [14] has as its system Frankliniella occidentalis. Description: Resistance factor, LC50 for Frankliniella occidentalis PPP (western flower thrips) to LC50 for Frankliniella occidentalis TFR. The format is functional.
Test [15] deals with Frankliniella occidentalis. Description: Insecticidal activity against Frankliniella occidentalis TF (western flower thrips) in compound treated sweet pepper leaf assessed as mortality at 25 +/- 2 degC by leaf dip method. The class given is functional. As to conditions: in Capsicum annuum, foliar.
Test [16] has as its system Frankliniella occidentalis. Description: Resistance factor, LC50 for Frankliniella occidentalis MOJO (western flower thrips) to LC50 for Frankliniella occidentalis TF. The format is functional.
Test [17] deals with Frankliniella occidentalis. Nature of the test: Insecticidal activity against Frankliniella occidentalis TFA (western flower thrips) in compound treated sweet pepper leaf assessed as mortality at 50 mg/l at 25 +/- 2 degC by leaf dip method. The format is functional. As to conditions: in Capsicum annuum, foliar.
The subject of test [18] is Frankliniella occidentalis. Nature of the test: Insecticidal activity against Frankliniella occidentalis R1S (western flower thrips) in compound treated sweet pepper leaf assessed as mortality at 50 mg/l at 25 +/- 2 degC by leaf dip method. The format is functional. As to conditions: in Capsicum annuum, foliar.
Test [19] deals with Frankliniella occidentalis. Description: Insecticidal activity against Frankliniella occidentalis PPP (western flower thrips) in compound treated sweet pepper leaf assessed as mortality at 25 +/- 2 degC by leaf dip method. The format is functional. As to conditions: in Capsicum annuum, foliar.
Test [20] concerns Frankliniella occidentalis. Description: Insecticidal activity against Frankliniella occidentalis TFB (western flower thrips) in compound treated sweet pepper leaf assessed as mortality at 50 mg/l at 25 +/- 2 degC by leaf dip method. The format is functional. As to conditions: in Capsicum annuum, foliar.
Test [21] relates to Frankliniella occidentalis. Description: Resistance factor, LC50 for Frankliniella occidentalis R1S (western flower thrips) to LC50 for Frankliniella occidentalis TF. The class given is functional.
Test [22] deals with Frankliniella occidentalis. Nature of the test: Insecticidal activity against Frankliniella occidentalis R1 (western flower thrips) in compound treated sweet pepper leaf assessed as mortality at 50 mg/l at 25 +/- 2 degC by leaf dip method. The format is functional. As to conditions: R1, in Capsicum annuum, foliar.
The test system of test [23] is Frankliniella occidentalis. Nature of the test: Insecticidal activity against Frankliniella occidentalis R1S (western flower thrips) in compound treated sweet pepper leaf assessed as mortality at 1000 mg/l at 25 +/- 2 degC by leaf dip method. The following applies: in Capsicum annuum, foliar.

In brackets after ≈: the same amount, converted by molar mass.

In ChEMBL document CHEMBL3045168, “Thiamethoxam acts as a target-site synergist of spinosad in resistant strains of Frankliniella occidentalis” (2013) one finds mortality, LC50 and RatioLC50 data, which are given here for 5 compounds.

The term mortality denotes the share of the test organisms that died. Take `O=[N+]([O-])/N=C1\NCCN1Cc1ccc(Cl)nc1` [IMIDACLOPRID]: the mortality at 150 µg/mL in test [1] came to 10%; in test [2] it was 0%; in [3] it was 3.3%; in test [4], 6.7%.
Take `N#C/N=C1\SCCN1Cc1ccc(Cl)nc1` [THIACLOPRID]: the mortality at 216 µg/mL in [5] came out at 3.3%; in test [6], 10%; in test [7], 3.3%; in [8] it was 0%.
The LC50 is the concentration lethal to half of the exposed cells or organisms. With `CN1COCN(Cc2cnc(Cl)s2)/C1=N\[N+](=O)[O-]` [THIAMETHOXAM], the LC50 is 298 mg/L (≈ 1020 µM) in test [9]; 352 mg/L (≈ 1210 µM) in test [10]; 209 mg/L (≈ 717 µM) in test [11]; 158 mg/L (≈ 541 µM) in test [15]; 1670 mg/L (≈ 5740 µM) in test [19]. The RatioLC50 in test [12] came to 0.8; in [14] it was 4.8; in test [16], 1; in test [21], 3. Besides, the mortality at 50 µg/mL in [13] stood at 13.3%; in test [17], 10%; in test [18] it was 0%; in test [20] it was 20%; in test [22], 16.7%.
Regarding `C/C(=N\C#N)N(C)Cc1ccc(Cl)nc1` [ACETAMIPRID], the LC50 in [9] is 119 mg/L (≈ 534 µM); in test [10], 663 mg/L (≈ 2980 µM); in test [19], 116 mg/L (≈ 521 µM). Also, the RatioLC50 in test [12] and in [14] was 0.2 each time.
For the compound `CCCCOCCOCCOCc1cc2c(cc1CCC)OCO2` [PIPERONYL BUTOXIDE], in [23], the mortality at 1000 µg/mL is 10%.
